From patent publication US20100016208A1, “PHOTOACTIVATABLE ANTIMICROBIAL AGENTS” (priority 2005, published 2010)

Key:
[1] = Fluorescence emission spectra of prodrug vs. free photosensitizer (TBO); assay type: physicochemical; settings: ethanol, 635 nm excitation
[2] = target: β-lactamase from Enterobacter cloacae (Enterobacter cloacae, UniProt P05364); experiment: Enzyme-mediated cleavage of the prodrug (fluorescence emission, photosensitizer release); assay type: biochemical
Method: Enzyme-mediated cleavage of the prodrug The prodrug obtained was further studied for release of photosensitizer in presence of β-lactamase from Enterobacter cloacae. For the fluorescence emission study of the prodrug, the solvent employed was water, and the excitation wavelength 635 nm in the presence of beta-lactamase enzyme (from Enterobacter cloacae). Time-dependent fluorescence emission was also measured for photosensitizer release from the prodrug in the presence of enzyme. […] Thus, the prodrug was synthesized and characterized.

Chain of β-lactamase from Enterobacter cloacae (P05364 21-381): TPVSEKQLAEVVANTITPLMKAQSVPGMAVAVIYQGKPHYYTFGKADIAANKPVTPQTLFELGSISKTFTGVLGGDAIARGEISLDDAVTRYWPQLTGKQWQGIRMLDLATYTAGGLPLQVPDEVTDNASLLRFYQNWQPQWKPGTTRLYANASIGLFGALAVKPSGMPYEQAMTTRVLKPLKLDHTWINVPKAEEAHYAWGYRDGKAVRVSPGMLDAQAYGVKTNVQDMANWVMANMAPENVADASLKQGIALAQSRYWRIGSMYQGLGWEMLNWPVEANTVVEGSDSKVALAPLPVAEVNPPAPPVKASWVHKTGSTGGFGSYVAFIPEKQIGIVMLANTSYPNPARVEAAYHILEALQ

Cephalosporanic Acid-Toluidine BlueO Prodrug
reduction in fluorescence emission maxima (quenching of the photosensitizer upon conjugation with the cephalosporin moiety) [1]: ~8 fold
enzyme specificity of photosensitizer release ([2]; beta-lactamase enzyme (from Enterobacter cloacae)): lactamase-specific activity
increase in excited stated properties (fluorescence emission) on incubation with enzyme ([2]; water, 635 nm excitation, within minutes of incubation of prodrug with enzyme): ~5 fold
